# Data taken from patent US8530486B2, “Quinazolines and related heterocyclic compounds, and their therapeutic use” (Vereniging Voor Christelijk Hoger Onderwijs, …, priority 2008, dated 2013).
# Target: T1, human H4 receptor (Homo sapiens, UniProt Q9H3N8)
# T1 construct: expressed in transfected cells; host or cells: HEK 293T cells, transient transfection with polyethyleneimine
# Test: [3H]Histamine binding assay (radioligand displacement at the human H4 receptor)
# Details: [3H]histamine displacement, membranes of HEK 293T cells transfected with human H4R; read-out: Activity Class* (Ki in H4 binding assay)
row,Compound,Ki
1,"CN1CCN(c2nc(NCCS(=O)(=O)Nc3ccc(I)cc3)c3cc(Cl)ccc3n2)CC1 [Example 8, 2-(6-chloro-2-(4-methylpiperazin-1-yl)quinazoline-4-amino)-N-(4-iodophenyl)ethanesulfonamide]",< 1000 nM
2,"CN1CCN(c2nc(NCCS(=O)(=O)Nc3ccccc3)c3cc(Cl)c(Cl)cc3n2)CC1 [Example 12, 2-(6,7-dichloro-2-(4-methylpiperazin-1-yl)quinazoline-4-amino)-N-phenylethanesulfonamide]",< 1000 nM

# Further lines, results first:
row,Ki,Compound
1,< 1000 nM,CN1CCN(c2nc(NCCS(=O)(=O)Nc3ccccc3)c3cc(Cl)cc(Cl)c3n2)CC1 [Example 14]
2,< 1000 nM,"CN1CCN(c2nc(NCCS(=O)(=O)Nc3ccccc3)c3ccc(Cl)c(Cl)c3n2)CC1 [Example 16, 2-(7,8-dichloro-2-(4-methylpiperazin-1-yl)quinazoline-4-amino)-N-phenylethanesulfonamide]"
3,< 1000 nM,"CN1CCN(c2nc(NCCS(=O)(=O)Nc3ccccc3)c3c(Cl)cc(Cl)cc3n2)CC1 [Example 17, 2-(5,7-dichloro-2-(4-methylpiperazin-1-yl)quinazoline-4-amino)-N-phenylethanesulfonamide]"
